The assay has as its system C.sporogenes spores ATCC 3584. Put plainly: In-vitro removal of spores from Vitro-Skin (finger bag collection method). The settings on record: Example 4. From the text: The in-vitro method was designed to evaluate the removal of microbes from skin using a synthetic skin material from the cosmetic industry, Vitro-skin from IMS inc, Portland MeThis method enables rapid screening of formulations for their propensity to promote release of microbes from skin and may be predictive of in-vivo activity.
The following materials were utilized. C.sporogenes spores ATCC 3584˜1.0×10̂8 CFU/ml; Triton-X 100 sampling buffer (pH 7.4) Filter Sterilized: 0.4 g KH2PO4, 10.1 g Na2HPO4, 1 g Triton-X 100, and 1 L dH2O; D/E neutralizing broth; Fingers from disposable polyethylene gloves (VWR 32915-268); Sterile dH2O (WFI quality water); 3M AC Petrifilm; and 5 ml Falcon tubes; 1.5 ml EPI Centrifuge tubes; Petri Dishes; Vitro-Skin IMS Inc.; and double-sided tape.
The method included the following. Punched-out specified number of Vitro-Skin samples using the ¾″ punch. Attached punch-out Vitro-Skin samples to a Petri-dish or any other sterile flat surface using double-sided tape. Contaminated the Vitro-Skin samples accordingly with 10μl of spores/spore prep (˜1×10̂6 CFU/Sample). Used the pipette tip to spread spores over the surface and used a new pipette tip for each sample. Allowed the samples to dry (˜40 minutes). […]
For best statistical data each test solution was repeated 3 times. […] Counted plates and analyzed data.

`N=C(NCCCCCCNC(=N)NC(=N)Nc1ccc(Cl)cc1)NC(=N)Nc1ccc(Cl)cc1.O=C(O)[C@H](O)[C@@H](O)[C@H](O)[C@H](O)CO.O=C(O)[C@H](O)[C@@H](O)[C@H](O)[C@H](O)CO` [CHG, Chlorhexidine gluconate]: the “spore removal (in words)” value was “poor spore removal”.
